Experimental data published in paper PMC5523311, “Synergistic Uric Acid-Lowering Effects of the Combination of Chrysanthemum indicum Linne Flower and Cinnamomum cassia (L.) J. Persl Bark Extracts” (Evidence-based Complementary and Alternative Medicine : eCAM, 2017).
In brackets after ≈: the same amount, converted by molar mass.

Experiments:
[1] = system: PO-induced hyperuricemic mice; set-up: method as in Wang et al. [23] and Meng et al. [32]; details: ref Wang et al. [23] and Meng et al. [32]; cited from earlier work
[2] = molecular target: T1, xanthine oxidase from bovine milk (Bos taurus, UniProt P80457); experiment: In vitro XOD inhibition assay (uric acid formation at 295 nm); type: biochemical; details: for IC50 / IC50 XOD activity: mean of three experiments
T1 construct: xanthine oxidase from bovine milk (0.09 units/mg solid); purchased Sigma-Aldrich (St. Louis, MO, USA); host or cells: bovine milk
T1 sequence (P80457 whole entry): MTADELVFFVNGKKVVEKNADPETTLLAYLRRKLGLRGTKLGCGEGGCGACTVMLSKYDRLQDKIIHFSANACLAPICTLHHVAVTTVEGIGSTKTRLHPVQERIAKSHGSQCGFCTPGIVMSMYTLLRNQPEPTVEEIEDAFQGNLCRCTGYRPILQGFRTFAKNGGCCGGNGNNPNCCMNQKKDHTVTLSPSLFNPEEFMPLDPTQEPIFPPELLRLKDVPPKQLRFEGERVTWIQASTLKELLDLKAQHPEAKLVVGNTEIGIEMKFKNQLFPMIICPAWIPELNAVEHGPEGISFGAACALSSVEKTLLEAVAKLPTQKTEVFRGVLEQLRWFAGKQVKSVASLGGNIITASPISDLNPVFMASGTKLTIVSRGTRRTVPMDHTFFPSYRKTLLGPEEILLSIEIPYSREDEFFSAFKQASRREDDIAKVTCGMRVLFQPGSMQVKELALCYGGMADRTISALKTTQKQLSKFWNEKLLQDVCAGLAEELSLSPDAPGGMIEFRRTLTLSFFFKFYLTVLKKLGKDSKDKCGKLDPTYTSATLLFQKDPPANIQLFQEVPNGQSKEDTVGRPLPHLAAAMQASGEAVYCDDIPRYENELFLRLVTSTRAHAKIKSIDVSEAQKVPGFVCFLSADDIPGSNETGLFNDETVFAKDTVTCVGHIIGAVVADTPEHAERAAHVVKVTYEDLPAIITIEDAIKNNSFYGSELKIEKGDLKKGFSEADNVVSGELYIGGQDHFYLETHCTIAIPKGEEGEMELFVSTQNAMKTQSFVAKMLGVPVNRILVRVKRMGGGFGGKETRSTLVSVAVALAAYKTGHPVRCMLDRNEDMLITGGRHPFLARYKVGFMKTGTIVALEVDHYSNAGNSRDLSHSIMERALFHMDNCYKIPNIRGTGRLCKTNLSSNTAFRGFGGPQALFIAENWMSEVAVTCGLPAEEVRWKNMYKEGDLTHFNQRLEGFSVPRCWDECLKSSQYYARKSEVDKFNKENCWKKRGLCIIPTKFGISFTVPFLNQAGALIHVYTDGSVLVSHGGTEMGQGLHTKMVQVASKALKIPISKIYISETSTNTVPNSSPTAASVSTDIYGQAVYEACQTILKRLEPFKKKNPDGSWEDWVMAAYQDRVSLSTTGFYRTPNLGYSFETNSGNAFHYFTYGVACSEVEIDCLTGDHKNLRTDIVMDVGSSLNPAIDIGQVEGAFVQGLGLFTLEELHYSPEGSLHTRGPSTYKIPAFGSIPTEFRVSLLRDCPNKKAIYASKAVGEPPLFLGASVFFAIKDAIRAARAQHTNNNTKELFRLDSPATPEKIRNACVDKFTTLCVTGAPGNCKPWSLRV

normal rats = experiment: Serum uric acid levels in normal rats; type: in vivo, rat; details: 10 mg/kg oral, Figure 1(b)
Experimental: The rats were randomized into the following 9 groups (n = 8/group) based on body weight: (1) a normal control group (NC), (2) a CF group, (3) a CB group, (4) a CC11 group, (5) a CC12 group, (6) a CC14 group, (7) a CC21 group, (8) a CC41 group, and (9) an AP group. The rats of NC group were treated with vehicle (0.5% CMC solution). CF, CB, and various CC mixtures in 0.5% CMC solution were given to the rats via oral gavage at a dose of 200 mg/kg. Allopurinol in 0.5% CMC solution was administered at a dose of 10 mg/kg.
(§1) Urine samples were collected during 2 h after the final administration experiment and centrifuged (3000g, 10 min, 4°C) to remove particulate contaminants, and the supernatants were stored at −80°C until analysis. Blood samples were collected via cardiac puncture under anesthesia 2 h after urine collection following PO injection. […] Serum and urine uric acid (SUA and UUA, resp.) levels were determined by an enzymatic-colorimetric method using commercial assay kits (Biovision, USA) according to manufacturer's protocols. Serum and urine creatinine levels were analyzed by an autoanalyzer (Hitachi-7020, Hitachi Medical, Japan). Fractional excretion of uric acid (FEUA) was calculated by the formula FEUA (%) = (urine uric acid levels [mg/dl] × Serum Creatinine levels [mg/dl])/(serum uric acid levels [mg/dl] × urine creatinine levels [mg/dl]) × 100.

[3] = system: PO-induced hyperuricemic rats; experiment: Serum uric acid levels in PO-induced hyperuricemic rats; type: in vivo, rat; details: 10 mg/kg oral
Experimental: (§2) For hyperuricemia induction, the uricase inhibitor potassium oxonate (PO) was administered as previously described, with slight modifications. For the experiment regarding the effects of CF, CB, and various CC mixtures, the rats were divided into the following 10 groups (n = 8/group) based on body weight: (1) a normal control group (NC), (2) a hyperuricemia control group (PO), (3) a PO + CF group, (4) a PO + CB group, (5) a PO + CC11 group, (6) a PO + CC12 group, (7) a PO + CC14 group, (8) a PO + CC21 group, (9) a PO + CC41 group, and (10) a PO + AP group. […]
as §1, with “analysis.” for “analysis. Blood samples were collected via cardiac puncture under anesthesia 2 h after urine collection following PO injection.”

[4] = system: PO-induced hyperuricemic rats; experiment: Urine uric acid, FEUA and creatinine in PO-induced hyperuricemic rats; type: in vivo, rat; details: 10 mg/kg oral
Experimental: as §2
as §1, with “analysis.” for “analysis. Blood samples were collected via cardiac puncture under anesthesia 2 h after urine collection following PO injection.”

[5] = read-out: % inhibition of XOD activity

| SMILES | inhibition at 62.5 µg/mL ([2]; 62.5 μg/ml) [%] | inhibition at 125 µg/mL ([2]; 125 μg/ml) [%] | inhibition at 250 µg/mL ([2]; 250 μg/ml) [%] | IC50 [2] [µM] | % inhibition of XOD activity ([2]; 62.5 μg/ml) [%] | % inhibition of XOD activity ([2]; 125 μg/ml) [%] | % inhibition of XOD activity ([2]; 250 μg/ml) [%] | IC50 XOD activity [2] [µg/mL] | also measured |
| --- | --- | --- | --- | --- | --- | --- | --- | --- | --- |
| O=C(/C=C/c1ccc(O)c(O)c1)O[C@@H]1C[C@](O)(C(=O)O)C[C@@H](O)[C@H]1O [Chlorogenic acid] | 24 ± 1.7 | 63.6 ± 1.5 | 107.3 ± 0.6 | 293 | – | – | – | – | Effect on serum uric acid levels by inhibiting XOD activity [1]: significantly decreased |
| O=C/C=C/c1ccccc1 [Cinnamaldehyde, cinnamaldehyde] | 101 ± 3.2 | 126 ± 5.6 | 119 ± 35.1 | 331 | – | – | – | – | Effect on serum uric acid levels by inhibiting XOD activity [1]: significantly decreased |
| O=C(O)/C=C/c1ccccc1 [trans-Cinnamic acid, trans-cinnamic acid] | – | – | – | – | 54.3 ± 0.7 | 96.7 ± 1.9 | 114.9 ± 0.4 | 58.8 (≈ 397 µM) | – |
| Oc1ncnc2[nH]ncc12 [Allopurinol, allopurinol] | – | – | – | – | – | – | – | – | Decrease of serum uric acid levels compared with the NC group (normal rats): 70%; Reduction of serum uric acid levels compared with the PO group ([3]; PO-induced hyperuricemic rats, Figure 1(a)): 75%; Reduction of serum uric acid levels ([3]; dose-dependence experiment, Figure 2(a)): 66%; inhibition at 6.25 µg/mL [2, 5]: 51.7 ± 0.7%; inhibition at 12.5 µg/mL [2, 5]: 71.7 ± 0.1%; inhibition at 25 µg/mL [2, 5]: 80.3 ± 0.3%; Effect on urine uric acid levels ([4]; Figure 2(b)): did not affect; Effect on FEUA ([4]; Figure 2(c), p < 0.05): increased the FEUA |

Now from value to compound, other results behind:

| inhibition at 62.5 µg/mL ([2]; 62.5 μg/ml) [%] | inhibition at 125 µg/mL ([2]; 125 μg/ml) [%] | inhibition at 250 µg/mL ([2]; 250 μg/ml) [%] | IC50 [2] [µM] | % inhibition of XOD activity ([2]; 62.5 μg/ml) [%] | % inhibition of XOD activity ([2]; 125 μg/ml) [%] | % inhibition of XOD activity ([2]; 250 μg/ml) [%] | IC50 XOD activity [2] [µg/mL] | SMILES | also measured |
| --- | --- | --- | --- | --- | --- | --- | --- | --- | --- |
| 22.8 ± 0.1 | 75.1 ± 1 | 103.9 ± 0.7 | 651 | – | – | – | – | O=c1ccc2ccccc2o1 [Coumarin, coumarin] | – |
| – | – | – | – | 21.0 ± 1.5 | 104.6 ± 2.6 | 85.0 ± 1.2 | 79.7 (≈ 154 µM) | O=C(/C=C/c1ccc(O)c(O)c1)O[C@@H]1[C@H](O)C[C@@](O)(C(=O)O)C[C@H]1OC(=O)/C=C/c1ccc(O)c(O)c1 (stereo in doubt) [3,4-Dicaffeoylquinic acid, 3,4-dicaffeoylquinic acid] | – |
| – | – | – | – | 104.7 ± 0.2 | 101.2 ± 0.2 | 100.0 ± 0.4 | 25.7 (≈ 158 µM) | COc1ccccc1C=CC=O [o-Methoxycinnamaldehyde, o-methoxycinnamaldehyde] | – |
